Earlier results in US6996473B2, “Method for screening and producing compound libraries” (Lion Bioscience AG, priority 1998, dated 2006).
Where a name gives a salt, the structure may show the parent alone. Read-outs that look alike come from different tables or passages of the source.

What was measured:
[1] = test system: rabbit intestinal tissue; conditions: intestinal transport mechanism represented by the standard
[2] = Stomach

OC[C@@H](O)[C@@H](O)[C@H](O)[C@H](O)CO [mannitol]
Transport mechanism [1]: Passive Paracellular

Nc1nc(O)c2ncn(COC(CO)CO)c2n1 [Gancyclovir, 9-(1,3-dihydroxy-2-propoxymethyl) guanine, monosodium salt]
Solubility [2]: 31 mg/mL | Cmax (Clinical 1505a): 550 ng/mL | Tmax (Clinical 1505a): 1.43 h | Cmax (Clinical 1505b): 590 ng/mL | Tmax (Clinical 1505b): 1.43 h | bioavailability of fasted patients in clinical trials (fasted patients, oral): 3-20%

O=C[C@H](O)[C@@H](O)[C@H](O)[C@H](O)CO [D-glucose]
Transport mechanism [1]: Carrier-mediated Influx
